Data: patent US10344002B2, “Compositions and methods for treating metabolic disorders” (NuSirt Sciences, Inc., priority 2016, dated 2019)

How the values were obtained:
adiponectin = test: Adiponectin gene expression (real-time PCR) in 3T3L1 adipocytes; assay type: cell-based; conditions: for adiponectin expression, fold change to control (FIG. 8): 48 hours
Protocol: Cell Culture: 3T3L1 adipocytes were seeded with 20,000 cells per well on 96-well tissue culture plates in DMEM containing 10% FBS and 1% penicillin-streptomycin. After reaching confluency (3 days), cells were induced to differentiate with a standard differentiation media (DM2-L1, Zen-Bio Inc., NC) for 3 days, then cells were maintained in DMEM (10% FBS, 1% penicillin-streptomycin) for another 8 days to induce lipid accumulation. Cells were then treated with indicated concentration of Compound 2 for 48 hours.
(§1) Compound 2 was dissolved in 100% DMSO to a stock concentration of 100 mM. This stock was further diluted to indicated concentrations in DMEM media.
Gene Expression: 3T3L1 adipocytes were grown and treated as described above. The medium was removed and the cells were washed with cold PBS. Cells Lysis, reverse transcription and real-time PCR was performed according to the instructions of the TaqMan® Gene Expression Cells-to-CT™ Kit manual (Life Technologies Inc, Cat #4399002). cDNA was probed with adiponectin and normalized to 18S.

HepG2 liver cells = test: Lipid accumulation (Oil Red Staining) in HepG2 liver cells induced with high glucose plus insulin; assay type: cell-based; conditions: 48 hours
Protocol: Cell Culture: HepG2 liver cells were seeded with 80,000 cells per well on 24-well tissue culture plates in low glucose (5 mM) DMEM containing 10% FBS and antibiotics. After 24 hours of attachment, lipid accumulation was induced by incubating cells with high glucose (25 mM) DMEM (10% FBS, 1% Pen-Strep) plus 100 nM insulin for 48 hours. Cells were then treated with indicated concentrations of Compound 2 for an additional 48 hours.
as §1
(§2) Lipid accumulation (Oil Red Staining): HepG2 liver cells were seeded and treated as described above. After 48 hours of treatment with Compound 2, lipid accumulation in HepG2 was measured via Oil Red Staining. Cells were washed with phosphate buffered saline (PBS) once, then cells were fixated with 10% formalin for 1 hour. After removal of the formalin, cells were washed with ddH2O twice, then washed with 60% isopropanol. Cells were dried completely. Cells were stained with Oil Red working solution (˜5 mM) for 25 minutes, then immediately washed with ddH2O four times, then dried completely again. Oil Red dye was eluted with 100% isopropanol and absorbance was read at 500 nm. Unstained cells plus isopropanol was used as a blank and subtracted from all readings. Data are represented as mean±SEM for each treatment group.

3T3L1 adipocytes = test: Lipid accumulation (Oil Red Staining) in 3T3L1 adipocytes; assay type: cell-based; conditions: 72 hours; for Oil Red absorbance (FIG. 11): control approximately 0.66
Protocol: Cell Culture: 3T3L1 adipocytes were seeded with 80,000 cells per well on 24-well tissue culture plates in high glucose (25 mM) DMEM containing 10% FBS and antibiotics. After reaching confluency (3 days), cells were induced to differentiate with a standard differentiation media (DM2-L1, Zen-Bio Inc., NC) for 3 days, then cells were maintained in DMEM (10% FBS, 1% penicillin-streptomycin) for another 8 days to induce lipid accumulation. Cells were then treated with indicated concentration of Compound 2 for 72 hours.
as §1
as §2, with “3T3L1 adipocytes” for “HepG2 liver cells”, “72” for “48”, “adipocytes” for “HepG2”

Sir2 = test: Western blot, Sir2 protein expression in C. elegans treated from L1 stage to adulthood; assay type: in vivo; conditions: for Sir2 protein expression, fold change of control (FIG. 7A): 3 days
Protocol: C. elegans culture: Synchronized L1 wild-type worms were transferred to NGM agar plates with the following treatments until adulthood (3 days): 1. control NGM plates, 2. NGM plate with 10 nM Compound 2 added to E. coli suspension, 3. NGM plate with 100 nM Compound 2 added to E. coli suspension.
(§3) Western blots: Phospho-AMPK, AMPK, Phospho-ACC, ACC antibodies were obtained from Cell Signaling (Danvers, Mass.). Sir2 antibody was obtained from MyBiosource (San Diego, Calif.). Protein levels of cell extracts were measured by BCA kit (Thermo Scientific, Pittsburgh, Pa.). For Western blot, 10-50 μg protein was resolved on 4-15% gradient polyacrylaminde gels (Criterion precast gel, Bio-Rad Laboratories, Hercules, Calif.), transferred to either PVDF or nitrocellulose membranes, incubated in blocking buffer (3% BSA or 5% non-fat dry milk in TBS) and then incubated with primary antibody (1:1000 dilution), washed and incubated with horseradish peroxidase- or fluorescence-conjugated secondary antibody (1:10000 dilution). Visualization was conducted using BioRad ChemiDoc instrumentation and software (Bio-Rad Laboratories, Hercules, Calif.) and band intensity was assessed using Image Lab 4.0 with correction for background and loading controls.

[1] = test system: acetyl-CoA carboxylase (ACC); test: Western blot, phosphorylated/total acetyl-CoA carboxylase in C2C12 muscle cells; assay type: cell-based; conditions: for increase in the ratio of phosphorylated to total ACC: 24 h; for ratio of phosphorylated/total ACC (FIG. 6B): 24 hours, control approximately 1.25
Protocol: Cell Culture: C2C12 muscle cells were seeded with 400,000 cells per well on 6-well tissue culture plates in Dulbecco's modified eagle's medium (DMEM) containing 10% fetal bovine serum (FBS) and antibiotics (1% penicillin-streptomycin) at 37° C. in 5% CO2. After reaching confluency (24 hours), cells were induced to differentiate with DMEM containing 2% Horse Serum for 5 to 6 days until myotubes were fully formed. Cells were then treated with indicated concentration of Compound 2 for 4 and 24 hours.
as §1, §3

AMPK = test: Western blot, phosphorylated/total AMPK in 3T3L1 adipocytes; assay type: cell-based; conditions: 48 hours; for ratio of phosphorylated/total AMPK (FIG. 5): control approximately 1.52
Protocol: 3T3L1 adipocytes were seeded with 200,000 cells per well on 6-well tissue culture plates in Dulbecco's modified eagle's medium (DMEM) containing 10% fetal bovine serum (FBS) and antibiotics (1% penicillin-streptomycin) at 37° C. in 5% CO2. After reaching confluency (3 days), cells were induced to differentiate with a standard differentiation media (DM2-L1, Zen-Bio Inc., NC) for 3 days, then cells were maintained in DMEM (10% FBS, 1% penicillin-streptomycin) for another 11 days to induce lipid accumulation. Cells were then treated with indicated concentration of Compound 2 for 48 hours.
as §1, §3

Structure (SMILES): CC(C)C[C@@H]1NC(N=C(N)N)=NC1=O [Compound 2]
- increase of adiponectin gene expression (adiponectin; 10 nM and 100 nM, 48 hour treatment): approximately 35%
- adiponectin expression, fold change to control (FIG. 8) (adiponectin; 10 nM): approximately 1.35 fold change
- adiponectin expression, fold change to control (FIG. 8) (adiponectin; 100 nM): approximately 1.4 fold change
- effect on fat accumulation (HepG2 liver cells; HepG2, all tested concentrations (1 nM to 10 uM)): significantly reduced
- reduction of fat accumulation (highest effect) (HepG2 liver cells; HepG2, high glucose (25 mM) DMEM plus 100 nM insulin, 10 nM, p<0.025): up to 40%
- Oil Red absorbance (FIG. 11) (3T3L1 adipocytes; 1 nM, 500 nm): approximately 0.57
- Oil Red absorbance (FIG. 11) (3T3L1 adipocytes; 10 nM, 500 nm): approximately 0.58
- Oil Red absorbance (FIG. 11) (3T3L1 adipocytes; 50 nM, 500 nm): approximately 0.53
- Oil Red absorbance (FIG. 11) (3T3L1 adipocytes; 100 nM, 500 nm): approximately 0.54
- Oil Red absorbance (FIG. 11) (3T3L1 adipocytes; 200 nM, 500 nm): approximately 0.51
- Oil Red absorbance (FIG. 11) (3T3L1 adipocytes; 350 nM, 500 nm): approximately 0.55
- Oil Red absorbance (FIG. 11) (3T3L1 adipocytes; 500 nM): approximately 0.68
- reduction in lipid accumulation (plateau effect) (3T3L1 adipocytes; 50 to 350 nM, p<0.05): up to 23%
- lipid reducing effect (3T3L1 adipocytes; higher concentration (500 nM)): lost
- Sir2 protein expression, fold change of control (FIG. 7A) (Sir2; 10 nM): approximately 1.65 fold change
- Sir2 protein expression, fold change of control (FIG. 7A) (Sir2; 100 nM): approximately 1.5 fold change
- increase in Sir2 protein expression (Sir2; L1 stage to adulthood (3 days), p=0.03): up to 60%
- increase in the ratio of phosphorylated to total ACC ([1]; 10 nM): 46%
- ratio of phosphorylated/total ACC (FIG. 6B) ([1]; 10 nM): approximately 1.8
- increase in the ratio of phosphorylated to total ACC ([1]; 100 nM): 21%
- ratio of phosphorylated/total ACC (FIG. 6B) ([1]; 100 nM): approximately 1.52
- ratio of phosphorylated/total AMPK (FIG. 5) (AMPK; 10 nM): approximately 1.5
- ratio of phosphorylated/total AMPK (FIG. 5) (AMPK; 100 nM): approximately 2.0
- increase in the ratio of phosphorylated to total AMPK protein expression (AMPK; 100 nM, p=0.0004): 35%
